Test results: patent publication EP0459829A1, “Pharmacologically active CNS compounds” (THE WELLCOME FOUNDATION LIMITED, priority 1990, dated 1991)

What was measured:
Rat Liver DHFR = biological target: T1, Rat Liver DHFR (Rattus norvegicus, UniProt Q920D2); experiment: Inhibition of DHFR enzyme activity; type: biochemical; conditions: read-out: IC50(µM) Rat Liver DHFR (P95 limits)
T1 construct: from tissue; host or cells: rat liver
T1 sequence (Q920D2 1-187): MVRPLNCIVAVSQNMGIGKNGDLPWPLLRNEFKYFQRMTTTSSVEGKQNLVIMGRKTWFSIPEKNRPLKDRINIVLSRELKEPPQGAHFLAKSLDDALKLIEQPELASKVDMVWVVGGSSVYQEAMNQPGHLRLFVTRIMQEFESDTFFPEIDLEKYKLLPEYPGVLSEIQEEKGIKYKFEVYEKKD
Description: (§1) A compound of Formula (1) was tested for its effect on veratrine-evoked release of glutamate from rat brain slices according to the protocol described in Epilepsia 27(5): 490-497, 1986. The protocol for testing for inhibition of DHFR activity was a modification of that set out in Biochemical Pharmacology Vol.20 pp 561-574, 1971.
(§2) The results are given in Table 1, the IC50 being the concentration of compound to cause 50% inhibition of (a) veratrine-evoked release of glutamate and (b) of DHFR enzyme activity.

[1] = tested on: veratrine-evoked release of glutamate from rat brain slices; experiment: Inhibition of veratrine-evoked release of glutamate from rat brain slices; type: cell-based; conditions: read-out: IC50(µM) Glutamate Release (P95 limits)
Description: as §1, §2

## Nc1nnc(-c2cc(Cl)c(N)c(Cl)c2Cl)c(N)n1 [Example 1, 3,5-Diamino-6-(4-amino-2,3,5-trichlorophenyl)-1,2,4-triazine]
Rat Liver DHFR
  IC50: > 100 µM
[1]
  IC50: < 10 µM
